Laboratory results published in US11312939B2, “Constructs for chimeric antigen receptors” (Carisma Therapeutics Inc., priority 2020, dated 2022).

B1: CD40L: Recombinant CD40 ligand (Peprotech), CD40 agonist (protein, UniProt P29965 113-261, looked up)
CD40 ligand, soluble form: MQKGDQNPQIAAHVISEASSKTTSVLQWAEKGYYTMSNNLVTLENGKQLTVKRQGLYYIYAQVTFCSNREASSQAPFIASLCLKSPGRFERILLRAANTHSSAKPCGQQSIHLGGVFELQPGASVFVNVTDPSQVSHGTGFTSFGLLKL

Experiments:
[1] = test system: HER2 CAR macrophages co-cultured with HER2+ breast cancer cells (CRL2351); assay: Cytokine secretion of interferon treated HER2 CAR macrophages in co-culture (MSD); format: cell-based, human; settings: E:T 3:1, supernatant at 48 hours
Description: Human macrophages were electroporated with 150 nM HER2 CAR mRNA comprising m6AGCap1 and PsU modifications. HER2+ breast cancer cells (CRL2351) were co-cultured with CAR macrophages after the macrophages were transfected with the CAR mRNA at an Effector (CAR macrophage) to Target (cancer cell) ratio of 3:1. Supernatant was collected 48 hours after the cancer cells and macrophages were co-cultured and cytokine levels were measured using a Meso Scale Discovery (MSD) instrument.

[2] = test system: Human macrophages electroporated with HER2 CAR mRNA; assay: Cytokine treatment of HER2 CAR mRNA macrophages: viability, CAR expression, M1/M2 markers by flow cytometry; format: cell-based; settings: days 2 and 7
Description: Human macrophages were electroporated with HER2 CAR mRNA comprising m6AGCap1 and PsU modifications. Cells were cultured with cytokines that induce an M1 phenotype such as IFN-alpha, IFN-beta, IFN-gamma, IFN-gamma plus lipopolysaccharide (LPS), TNF-alpha, IL-6 or a STING ligand (STING-L) for up to 48 hours and then cytokines were washed off and fresh media was added. CAR expression and M1 marker expression were measured on days 2 and 7 after transfection. Fluorescent labeled HER2+ breast cancer cells (CRL2351) were co-cultured with HER2 CAR macrophages two days after the macrophages were transfected. Cancer cell growth was monitored via its fluorescence on an Incucyte® live imaging microscope every four hours. The Effector (CAR macrophage) to Target (cancer cell) ratio was 5:1.
Five different mRNA modifications were also tested to determine if interferon treatment differentially affected macrophages transfected with mRNA comprising different modifications. Human macrophages were electroporated with HER2 CAR mRNA comprising different mRNA modifications. CAR expression and M1 markers were detected by Flow Cytometry (Attune) on day four after electroporation. Day 4 CAR macrophage cells were then co-cultured with a Nuc-Light labeled, HER2+ breast cancer cell line (CRL2351) at an Effector (CAR macrophage) to Target (cancer cell) ratio of 5:1. Cancer cell growth was monitored via its fluorescence on an Incucyte® live imaging microscope every four hours.
Human macrophages were electroporated with 300 nM CAR mRNA comprising m6AGCap1 and PsU modifications. Cells were cultured with 20 ng/mL IFNs for 24 hours and then the cells were washed to remove cytokines. CAR expression was detected by Flow Cytometry (Attune) on day 2 after transfection. Cells were then co-cultured with a Nuc-Light labeled, HER2+ breast cancer cell line (CRL2351) at the Effector to Target ratio of 3:1. Cancer cell growth was monitored via its fluorescence on an Incucyte® live imaging microscope. CAR expression and M1 markers in macrophages were detected by Flow Cytometry (Attune) on day 7 after transfection.

[3] = test system: Human macrophages transfected with mCherry mRNA; assay: mCherry mRNA expression in transfected macrophages (Incucyte); format: cell-based; settings: cultured one day with different doses
Description: Human macrophages were transfected with mCherry mRNA comprising m6AGCap1 and PsU or N1 mPsU modifications and were then cultured for one day with different doses of IFN-γ. mCherry expression was monitored on an Incucyte® live imaging microscope.
In order to determine whether an RNaseL inhibitor could rescue IFN-γ-induced instability of transfected mRNA, human macrophages were treated with 1 μM sunitinib (an RNaseL inhibitor) two hours prior to the transfection of mCherry mRNA comprising m6AGCap1 and PsU modifications. Transfected cells were then cultured for one day with different dosages of IFN-γ. mCherry expression was monitored on an Incucyte® live imaging microscope.
The effect of another RNaseL inhibitor (RLI or ABCE1) was also tested to further validate the concept. Human macrophages were co-transfected with mRNA encoding mCherry comprising m6AGCap 1 and PsU modifications and with mRNA encoding ABCE1.

[4] = test system: Her2-Zeta CAR expressing macrophages; assay: Priming of CAR macrophages with plate-coated agonists, M1 and M2 surface markers; format: cell-based, human; settings: plate-coated protein, 3 days
Description: (§1) To generate Her2-Zeta CAR expressing macrophages, primary human macrophages were suspended in EP buffer (MaxCyte) containing 300 nM mRNA (TriLink) at a concentration of 90×10^6 cells/mL. 100 μL of cell mixture was added to an electroporation cassette (OC100×2; MaxCyte) and electroporated using the Experimental T cell 1 setting. Cells were removed from the cassette, plated in 3 mL of TexMACS media (Miltenyi Biotech) containing 20% FBS (Gibco) on UpCell plates (Thermo Scientific), and incubated overnight at 37 C and 5% CO2.
(§2) Recombinant CD40 ligand (Peprotech), 4-1BB ligand (Enzo Life Sciences), and 4-1BB receptor (Peprotech) were resuspended in molecular grade water to a stock concentration of 100 μg/mL. Stock solution was then used to create working solutions in PBS ranging from 2-0.002 μg/mL. 100 uL of working solution was added to wells in a 96-well plate and left at room temperature for 4 h.
For detection of cell surface proteins, macrophages were plated onto wells coated with agonist molecules in a final volume of 200 uL TexMACS media+10% FBS+10 ng/mL GM-CSF and incubated for 3 days at 37 C and 5% CO2. Cells were incubated in 300 μL Accutase (Sigma) for 30 min and transferred to 96-well round bottom plate for staining. Cells were incubated in FACS buffer containing 20 μg/mL Her2-His for 20 min at RT, followed by incubation in Human TruStain FcX for 10 min at RT. […]

[5] = test system: CRL-2351 cells expressing nuclear GFP; assay: Priming of CAR macrophages with plate-coated agonists, tumor cell killing; format: cell-based; settings: plate-coated protein, 3 h priming
Description: as §1, §2
Plates were removed from the incubator and left at room temperature for 30 min. Cells were detached from plate, counted using the NC-200 automated cell counter (Chemomtech), and re-suspended in TexMACS media with 10% FBS. […] Cell lysis was detected using Incucyte® analysis (Essen Bioscience). Tumor cell death was calculated by integrated GFP intensity per well relative to time 0.

| Molecule | secretion of IL-6, IL-8 and TNFα from macrophages [1] | M1 phenotype based on CD86 expression [2] | M2 markers based on CD163 expression [2] | mCherry mRNA expression [3] | M1 phenotype of mRNA CAR macrophages (M1 and M2 markers) [4] | tumor killing ability of macrophages and CAR macrophages [5] |
| --- | --- | --- | --- | --- | --- | --- |
| IFN-γ: interferon cytokine that induces an M1 phenotype | increased secretion of the cytokines IL-6, IL-8 and TNFα | induction of an M1 phenotype | reduction of M2 markers | reduced mCherry mRNA expression |  |  |
| IFN-α | increased secretion of the cytokines IL-6, IL-8 and TNFα | induction of an M1 phenotype | reduction of M2 markers |  |  |  |
| B1 |  |  |  |  | induced an M1 phenotype | significantly improved the tumor killing ability |
